Measurements published in ChEMBL document CHEMBL4627246, “Pyroglutamide-Based P2X7 Receptor Antagonists Targeting Inflammatory Bowel Disease” (J Med Chem, 2020).

Assays:
Assay type in all cases: cell-based
[1] = system: CCRF-CEM; assay: Cytotoxicity against human CCRF-CEM cells assessed as effect on cell growth at 10 uM incubated for 48 hrs by sulforhodamine B assay
[2] = system: SR; assay: Cytotoxicity against human SR cells assessed as effect on cell growth at 10 uM incubated for 48 hrs by sulforhodamine B assay
[3] = system: K562; assay: Cytotoxicity against human K562 cells assessed as effect on cell growth at 10 uM incubated for 48 hrs by sulforhodamine B assay; details: k562, 48 h
[4] = system: HOP-62; assay: Cytotoxicity against human HOP62 cells assessed as effect on cell growth at 10 uM incubated for 48 hrs by sulforhodamine B assay; details: hop-62, 48 h
[5] = system: COLO 205; assay: Cytotoxicity against human COLO205 cells assessed as effect on cell growth at 10 uM incubated for 48 hrs by sulforhodamine B assay; details: colo 205, 48 h
[6] = system: HCC 2998; assay: Cytotoxicity against human HCC2998 cells assessed as effect on cell growth at 10 uM incubated for 48 hrs by sulforhodamine B assay; details: hcc 2998, 48 h
[7] = system: SF-539; assay: Cytotoxicity against human SF539 cells assessed as effect on cell growth at 10 uM incubated for 48 hrs by sulforhodamine B assay; details: sf-539, 48 h
[8] = system: MDA-MB-435; assay: Cytotoxicity against human MDA-MB-435 cells assessed as effect on cell growth at 10 uM incubated for 48 hrs by sulforhodamine B assay; details: mda-mb-435, 48 h
[9] = system: SK-MEL-28; assay: Cytotoxicity against human SK-MEL-28 cells assessed as effect on cell growth at 10 uM incubated for 48 hrs by sulforhodamine B assay; details: sk-mel-28, 48 h
[10] = system: UACC-257; assay: Cytotoxicity against human UACC257 cells assessed as effect on cell growth at 10 uM incubated for 48 hrs by sulforhodamine B assay; details: uacc-257, 48 h
[11] = system: OVCAR-3; assay: Cytotoxicity against human OVCAR3 cells assessed as effect on cell growth at 10 uM incubated for 48 hrs by sulforhodamine B assay; details: ovcar-3, 48 h
[12] = system: NCI/ADR-RES; assay: Cytotoxicity against human NCI/ADR-RES cells assessed as effect on cell growth at 10 uM incubated for 48 hrs by sulforhodamine B assay
[13] = system: A498; assay: Cytotoxicity against human A498 cells assessed as effect on cell growth at 10 uM incubated for 48 hrs by sulforhodamine B assay; details: a498, 48 h
[14] = system: ACHN; assay: Cytotoxicity against human ACHN cells assessed as effect on cell growth at 10 uM incubated for 48 hrs by sulforhodamine B assay
[15] = system: CAKI-1; assay: Growth inhibition of human Caki1 cells assessed as growth percentage at 10 uM incubated for 48 hrs by sulforhodamine B assay; details: caki-1, 48 h
[16] = system: RXF 393; assay: Cytotoxicity against human RXF393 cells assessed as effect on cell growth at 10 uM incubated for 48 hrs by sulforhodamine B assay; details: rxf 393, 48 h
[17] = system: SN12C; assay: Cytotoxicity against human SN12C cells assessed as effect on cell growth at 10 uM incubated for 48 hrs by sulforhodamine B assay
[18] = system: TK-10; assay: Cytotoxicity against human TK10 cells assessed as effect on cell growth at 10 uM incubated for 48 hrs by sulforhodamine B assay; details: tk-10, 48 h
[19] = system: UO-31; assay: Cytotoxicity against human UO31 cells assessed as effect on cell growth at 10 uM incubated for 48 hrs by sulforhodamine B assay; details: uo-31, 48 h
[20] = system: Hs-578T; assay: Cytotoxicity against human Hs 578T cells assessed as effect on cell growth at 10 uM incubated for 48 hrs by sulforhodamine B assay

Measured: Activity

CCCCCCN1C(=O)[C@@H]2CCC(=O)N2C1N(C)C (stereo not given in full)
Non-Toxic: all assays above
